Reference: patent publication US20190359609A1, “BICYCLIC OGA INHIBITOR COMPOUNDS” (Janssen Pharmaceutica NV, priority 2016, published 2019)

Target: T1, recombinant human Meningioma Expressed Antigen 5 (MGEA5), also referred to as O-GlcNAcase (OGA) (Homo sapiens, UniProt O60502)
T1 construct: Full length OGA enzyme was purchased at OriGene (cat # TP322411); purchased OriGene TP322411
T1 sequence (O60502 1-916): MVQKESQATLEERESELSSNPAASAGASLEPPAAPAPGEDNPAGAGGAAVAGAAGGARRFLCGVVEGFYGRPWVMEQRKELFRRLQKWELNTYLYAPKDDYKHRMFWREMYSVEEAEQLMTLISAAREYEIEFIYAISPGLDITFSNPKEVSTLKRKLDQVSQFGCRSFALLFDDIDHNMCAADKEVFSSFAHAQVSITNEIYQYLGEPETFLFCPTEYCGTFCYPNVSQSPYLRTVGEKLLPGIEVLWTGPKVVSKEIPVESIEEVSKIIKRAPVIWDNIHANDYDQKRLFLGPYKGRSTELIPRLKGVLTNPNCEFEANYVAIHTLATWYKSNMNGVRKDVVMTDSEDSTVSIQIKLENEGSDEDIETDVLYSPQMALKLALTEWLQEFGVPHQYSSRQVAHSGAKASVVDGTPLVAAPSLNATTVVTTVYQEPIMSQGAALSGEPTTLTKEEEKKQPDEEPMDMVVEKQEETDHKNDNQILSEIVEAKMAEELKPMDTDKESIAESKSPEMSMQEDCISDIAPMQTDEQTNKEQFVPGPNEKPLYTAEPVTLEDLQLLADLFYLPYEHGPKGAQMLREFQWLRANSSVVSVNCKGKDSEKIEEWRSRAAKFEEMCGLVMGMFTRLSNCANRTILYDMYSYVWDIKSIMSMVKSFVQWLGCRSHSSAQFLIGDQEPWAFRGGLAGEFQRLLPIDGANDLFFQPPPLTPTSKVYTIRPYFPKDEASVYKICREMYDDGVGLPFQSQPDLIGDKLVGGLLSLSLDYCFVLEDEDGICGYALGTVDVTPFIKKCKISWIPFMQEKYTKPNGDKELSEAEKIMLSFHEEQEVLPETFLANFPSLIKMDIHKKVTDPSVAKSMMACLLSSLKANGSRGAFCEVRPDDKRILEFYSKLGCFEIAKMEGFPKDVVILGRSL
Test: OGA biochemical assay: inhibition of FM-GlcNAc hydrolysis, fluorescence (protocol A 10 nM OGA, 1 h; protocol B 2 nM OGA, 6 h)
Conditions: Enzymatic protocol A (10 nM OGA, 1 h)
From the text: The assay is based on the inhibition of the hydrolysis of fluorescein mono-B-D-N-Acetyl-Glucosamine (FM-GlcNAc) (Mariappa et al. 2015, Biochem J 470:255) by the recombinant human Meningioma Expressed Antigen 5 (MGEA5), also referred to as 0-GlcNAcase (OGA). The hydrolysis FM-GlcNAc (Marker Gene technologies, cat # M1485) results in the formation of β-D-N-glucosamineacetate and fluorescein. The fluorescence of the latter can be measured at excitation wavelength 485 nm and emission wavelength 538 nm. An increase in enzyme activity results in an increase in fluorescence signal. Full length OGA enzyme was purchased at OriGene (cat # TP322411). The enzyme was stored in 25 mM Tris.HCl, pH 7.3, 100 mM glycine, 10% glycerol at −20° C. Thiamet G and GlcNAcStatin were tested as reference compounds (Yuzwa et al. 2008 Nature Chemical Biology 4:483; Yuzwa et al. 2012 Nature Chemical Biology 8:393). The assay was performed in 200 mM Citrate/phosphate buffer supplemented with 0.005% Tween-20. 35.6 g Na2HPO4 2 H2O (Sigma, # C0759) were dissolved in 1 L water to obtain a 200 mM solution. 19.2 g citric acid (Merck, #1.06580) was dissolved in 1 L water to obtain a 100 mM solution. pH of the sodiumphosphate solution was adjusted with the citric acid solution to 7.2. The buffer to stop the reaction consists of a 500 mM Carbonate buffer, pH 11.0. 734 mg FM-GlcNAc were dissolved in 5.48 mL DMSO to obtain a 250 mM solution and was stored at −20° C. OGA was used at a 10 nM (protocol A) or 2 nM (protocol B) concentration and FM-GlcNAc at a 100 uM final concentration. Dilutions were prepared in assay buffer.
50 nl of a compound dissolved in DMSO was dispensed on Black Proxiplate™ 384 Plus Assay plates (Perkin Elmer, #6008269) and 3 μl fl-OGA enzyme mix added subsequently. Plates were pre-incubated for 60 min at room temperature and then 2 μl FM-GlcNAc substrate mix added. […] Plates were briefly centrifuged for 1 min at 1000 rpm and incubate at room temperature for 1 h (10 nM OGA, protocol A) or 6 h (2 nM OGA, protocol B). To stop the reaction 5 μl STOP buffer were added and plates centrifuge again 1 min at 1000 rpm. Fluorescence was quantified in the Thermo Scientific Fluoroskan Ascent or the PerkinElmer EnVision with excitation wavelength 485 nm and emission wavelength 538 nm.
For analysis a best-fit curve is fitted by a minimum sum of squares method. From this an IC50 value and Hill coefficient was obtained. High control (no inhibitor) and low control (saturating concentrations of standard inhibitor) were used to define the minimum and maximum values.

Row | Enzymatic Emax (%) | Structure (SMILES)
1 | 55.6 | CC(=O)Nc1ncc(CN2CCCC(c3nc4ncccc4[nH]3)C2)s1 (single isomer, unassigned) [Compound 18]

Same assay, conditions: Enzymatic protocol A (10 nM OGA, 1 h); read-out: Enzymatic Emax (%)

Row | Emax [%] | Structure (SMILES)
2 | 101 | CC(=O)Nc1ncc(CN2CC[C@@H](C)[C@H](c3cc4ncccc4[nH]3)C2)s1 (racemic) [Compound 22]
3 | 99.7 | CC(=O)Nc1ncc(S(=O)(=O)N2CCCC(c3cc4ncccc4[nH]3)C2)s1 (single isomer, unassigned) [Compound 4]
4 | 92.3 | CC(=O)Nc1ncc(CN2CCCC(c3cc4ncccc4[nH]3)C2)s1 (single isomer, unassigned) [Compound 6]
5 | 104 | CC(=O)Nc1ncc(CN2CCC[C@H](c3cc4ncccc4[nH]3)C2)s1 (single isomer, unassigned) [Compound 7]

Same assay, conditions: Enzymatic protocol A (10 nM OGA, 1 h); read-out: Enzymatic hOGA; pIC50 (converted)

Row | IC50 [nM] | Structure (SMILES)
6 | 41.7 | CC(=O)Nc1ncc(CN2CC[C@@H](C)[C@H](c3cc4ncccc4[nH]3)C2)s1 (racemic) [Compound 22]
7 | 178 | CC(=O)Nc1ncc(S(=O)(=O)N2CCCC(c3cc4ncccc4[nH]3)C2)s1 (single isomer, unassigned) [Compound 4]
8 | 1660 | CC(=O)Nc1ncc(CN2CCCC(c3cc4ncccc4[nH]3)C2)s1 (single isomer, unassigned) [Compound 6]
9 | 18.2 | CC(=O)Nc1ncc(CN2CCC[C@H](c3cc4ncccc4[nH]3)C2)s1 (single isomer, unassigned) [Compound 7]
10 | 24500 | CC(=O)Nc1ncc(CN2CCCC(c3nc4ncccc4[nH]3)C2)s1 (single isomer, unassigned) [Compound 18]

Same assay, conditions: Enzymatic protocol B (2 nM OGA, 6 h); read-out: Enzymatic Emax (%)

Row | Emax [%] | Structure (SMILES)
11 | 102 | CC(=O)Nc1ncc(CN2CC[C@@H](C)[C@H](c3cc4ncccc4[nH]3)C2)s1 (racemic) [Compound 22]
12 | 99.4 | CC(=O)Nc1ncc(S(=O)(=O)N2CCCC(c3cc4ncccc4[nH]3)C2)s1 (single isomer, unassigned) [Compound 4]
13 | 79.1 | CC(=O)Nc1ncc(CN2CCCC(c3cc4ncccc4[nH]3)C2)s1 (single isomer, unassigned) [Compound 6]
14 | 100 | CC(=O)Nc1ncc(CN2CCC[C@H](c3cc4ncccc4[nH]3)C2)s1 (single isomer, unassigned) [Compound 7]

Same assay, conditions: Enzymatic protocol B (2 nM OGA, 6 h); read-out: Enzymatic hOGA; pIC50 (converted)

Row | IC50 [nM] | Structure (SMILES)
15 | 22.4 | CC(=O)Nc1ncc(CN2CC[C@@H](C)[C@H](c3cc4ncccc4[nH]3)C2)s1 (racemic) [Compound 22]
16 | 186 | CC(=O)Nc1ncc(S(=O)(=O)N2CCCC(c3cc4ncccc4[nH]3)C2)s1 (single isomer, unassigned) [Compound 4]
17 | 2690 | CC(=O)Nc1ncc(CN2CCCC(c3cc4ncccc4[nH]3)C2)s1 (single isomer, unassigned) [Compound 6]
18 | 25.1 | CC(=O)Nc1ncc(CN2CCC[C@H](c3cc4ncccc4[nH]3)C2)s1 (single isomer, unassigned) [Compound 7]

Same assay, conditions: comparative table; protocol not given; read-out: Emax (OGA inhibitory activity, comparison with 1,4-disubstituted piperidine comparator)

Row | Emax [%] | Structure (SMILES)
19 | 104 | CC(=O)Nc1ncc(CN2CCC[C@H](c3cc4ncccc4[nH]3)C2)s1 (single isomer, unassigned) [Compound 7]

Same assay, conditions: comparative table; protocol not given; read-out: pIC50 (OGA inhibitory activity, comparison with 1,4-disubstituted piperidine comparator) (converted)

Row | IC50 [nM] | Structure (SMILES)
20 | 18.2 | CC(=O)Nc1ncc(CN2CCC[C@H](c3cc4ncccc4[nH]3)C2)s1 (single isomer, unassigned) [Compound 7]

Same assay, conditions: greater than the corresponding 1,4-disubstituted piperidine compound (comparator)

Row | OGA inhibitory activity compared with comparator | Structure (SMILES)
21 | ~1 order of magnitude | CC(=O)Nc1ncc(CN2CCC[C@H](c3cc4ncccc4[nH]3)C2)s1 (single isomer, unassigned) [Compound 7]

Test system: not given
Test: not given
Conditions: not given

Row | melting point [°C] | Structure (SMILES)
22 | 223.94 | CC(=O)Nc1ncc(CN2CCCC(c3nc4ncccc4[nH]3)C2)s1 (single isomer, unassigned) [Compound 18]

Target: T2, OGA (Homo sapiens, UniProt O60502)
T2 construct: endogenous in cells; host or cells: HEK293 cells inducible for P301L mutant human Tau (2N4R)
T2 sequence (O60502 1-916): T1 sequence (O60502 1-916)
Test: OGA cellular assay: ICC detection of O-GlcNAcylated proteins in HEK293 cells inducible for P301L mutant human Tau
Format: cell-based
Conditions: 6 hours incubation
Description: HEK293 cells inducible for P301L mutant human Tau (isoform 2N4R) were established at Janssen. Thiamet-G was used for both plate validation (high control) and as reference compound (reference EC50 assay validation). OGA inhibition is evaluated through the immunocytochemical (ICC) detection of O-GlcNAcylated proteins by the use of a monoclonal antibody (CTD110.6; Cell Signaling, #9875) detecting O-GlcNAcylated residues as previously described (Dorfmueller et al. 2010 Chemistry & biology, 17:1250).
Inhibition of OGA will result in an increase of 0-GlcNAcylated protein levels resulting in an increased signal in the experiment. Cell nuclei are stained with Hoechst to give a cell culture quality control and a rough estimate of immediate compounds toxicity, if any. ICC pictures are imaged with a Perkin Elmer Opera Phenix plate microscope and quantified with the provided software Perkin Elmer Harmony 4.1.
Cells were propagated in DMEM high Glucose (Sigma, #D5796) following standard procedures. 2 days before the cell assay cells are split, counted and seeded in Poly-D-Lysine (PDL) coated 96-wells (Greiner, #655946) plate at a cell density of 12,000 cells per cm^2 (4,000 cells per well) in 100 μl of Assay Medium (Low Glucose medium is used to reduce basal levels of GlcNAcylation) (Park et al. 2014 The Journal of biological chemistry 289:13519). At the day of compound test medium from assay plates was removed and replenished with 90 μl of fresh Assay Medium. 10 μl of compounds at a 10fold final concentration were added to the wells. Plates were centrifuged shortly before incubation in the cell incubator for 6 hours. DMSO concentration was set to 0.2%. Medium is discarded by applying vacuum. For staining of cells medium was removed and cells washed once with 100 μl D-PBS (Sigma, #D8537). From next step onwards unless other stated assay volume was always 50 μl and incubation was performed without agitation and at room temperature. Cells were fixed in 50 μl of a 4% paraformaldehyde (PFA, Alpha aesar, #043368) PBS solution for 15 minutes at room temperature. […] Before analysis samples were washed 2 times manually for 5 minutes in ICC base buffer.
Imaging is performed using Perkin Elmer Phenix Opera using a water 20× objective and recording 9 fields per well. Intensity readout at 488 nm is used as a measure of O-GlcNAcylation level of total proteins in wells. To assess potential toxicity of compounds nuclei were counted using the Hoechst staining. IC50-values are calculated using parametric non-linear regression model fitting. As a maximum inhibition Thiamet G at a 200 uM concentration is present on each plate. In addition, a concentration response of Thiamet G is calculated on each plate.

Row | Emax [%] | Structure (SMILES)
23 | 114 | CC(=O)Nc1ncc(CN2CC[C@@H](C)[C@H](c3cc4ncccc4[nH]3)C2)s1 (racemic) [Compound 22]
24 | 44.3 | CC(=O)Nc1ncc(S(=O)(=O)N2CCCC(c3cc4ncccc4[nH]3)C2)s1 (single isomer, unassigned) [Compound 4]
25 | 66.6 | CC(=O)Nc1ncc(CN2CCCC(c3cc4ncccc4[nH]3)C2)s1 (single isomer, unassigned) [Compound 6]
26 | 114 | CC(=O)Nc1ncc(CN2CCC[C@H](c3cc4ncccc4[nH]3)C2)s1 (single isomer, unassigned) [Compound 7]

Same assay, conditions: 6 hours incubation, read-out: Cellular hOGA, pEC50 (converted)

Row | EC50 [nM] | Structure (SMILES)
27 | 20.9 | CC(=O)Nc1ncc(CN2CC[C@@H](C)[C@H](c3cc4ncccc4[nH]3)C2)s1 (racemic) [Compound 22]
28 | > 10000 | CC(=O)Nc1ncc(S(=O)(=O)N2CCCC(c3cc4ncccc4[nH]3)C2)s1 (single isomer, unassigned) [Compound 4]
29 | 3630 | CC(=O)Nc1ncc(CN2CCCC(c3cc4ncccc4[nH]3)C2)s1 (single isomer, unassigned) [Compound 6]
30 | 21.4 | CC(=O)Nc1ncc(CN2CCC[C@H](c3cc4ncccc4[nH]3)C2)s1 (single isomer, unassigned) [Compound 7]
